Values of other authors as cited in US20250000937A1 (ZHAOKE (HONG KONG) OPHTHALMOLOGY PHARMACEUTICAL LTD., priority 2021, published 2025).

Columns and labels:
DED [1] = conditions: in vivo
DED [2] = conditions: OPUS-1, mean baseline ICSS of 1.84
[3] = in vivo

CS(=O)(=O)c1cccc(C[C@H](NC(=O)c2c(Cl)cc3c(c2Cl)CCN(C(=O)c2ccc4ccoc4c2)C3)C(=O)O)c1 [Lifitegrast]
Time to show efficacy against DED signs and symptoms (DED [1]): 3 months
Proportion of patients with at least a 1-point improvement in ICSS from baseline to day 84 (DED [2]): 22.2%
Patients with instillation site pain [3]: 22%
